Measured values taken from patent US11208418B2, “Nitrogenous tricyclic compounds and uses thereof in medicine” (SUNSHINE LAKE PHARMA CO., LTD., priority 2018, dated 2021).

How the values were obtained:
[1] = Liver microsome stability test; assay type: in vitro ADME; details: rat liver microsomes, compound 1 μM, 0.5 mg/mL microsome, 37° C.; for half-life at 1 μM: pH 7.4
Method: The solution of compound in DMSO (10 mM) was diluted with a mixed solvent of acetonitrile and water (1:1, v/v) to get a 100 μM compound solution, and then the 100 μM compound solution was diluted with potassium phosphate buffer (0.1 M, pH 7.4) to get a 3 μM compound solution. NADPH was formulated with potassium phosphate buffer (0.1 M, pH 7.4) to NADPH solution (6 mM). Rat liver microsome was formulated with potassium phosphate buffer (0.1 M, pH 7.4) to liver microsome solution (1.5 mg/mL).
The total volume of incubation mixture was 45 μL, including 15 μL rat liver microsome solution (1.5 mg/mL), 15 μL compound solution (3 μM) and 15 μL NADPH solution (6 mM), the final concentration of liver microsome in the incubation mixture was 0.5 mg/mL, the compound concentration was 1 μM, the NADPH concentration was 2 mM.
The incubation mixture was incubated at 37° C. The reaction was terminated by adding 120 μL acetonitrile solution containing internal standard at different time points (20 min and 60 min), and centrifuged at 4000 rpm for 5 min. The supernatant was took out and analyzed by LC-MS/MS.
At the same time, a parallel incubation test was set up, using inactivated rat liver microsomes as negative control and verapamil at the same concentration as positive control. The reaction was incubated at 37° C. and terminated at different time points (20 minutes and 60 minutes).
The ratio of sample peak area to internal standard peak area was obtained by analyzing through LC/MS/MS, the drug content of the negative control was as 100%, the drug relative content at each time point was calculated. The rate constant was obtained by plotting based on “Log[compound concentration]” to “incubating time”, and then the half-life T1/2 and intrinsic clearance CLHep of the compound were calculated.

[2] = target: farnesoid X receptor protein (Homo sapiens (Human), UniProt Q96RI1); experiment: Coactivation of TR-FRET farnesoid X receptor protein (Invitrogen PV4833 Kit); assay type: biochemical; details: TR-FRET coactivator recruitment, Fluorescein-SRC2-2, 1 hour at room temperature
Method: Purchasing Invitrogen PV4833 Kit.
Step 1, the compound was weighed and dissolved in 100% DMSO, the highest concentration is 3000 μM, and then diluted with DMSO by 3-fold serial dilution to get 10 concentrations.
Step 2, the above formulated compound solutions were diluted 100 times with the buffer provided in the kit, which were mixed respectively and 10 μL of which were added into a 384 well plate in turn.
Step 3, FXR recombinant nucleo receptor protein was diluted with a buffer to formulate 4× concentration, and 5 μL of which was added into the above 384 well plate containing the compound.
Step 4, Fluorescein-SRC2-2 and Tb anti-GST antibody were diluted with a buffer respectively, both concentration are 4×, after the two reagents were mixed together, 10 μL of which was added into the 384 well plate described in step 3.
At last, the solution in the 384 well plate was blend by centrifugation, and then incubated at room temperature for 1 hour.

[3] = Pharmacokinetic test in SD rats; assay type: in vivo; details: male, rat, plasma
Method: Experimental animals: 6 healthy male adult SD rats (purchased from Hunan SJA Laboratory Animal Co.; Ltd) were randomized into 2 groups, 3 in each group, the groups were administered by intravenous injection and gavage respectively.
Preparation of drugs: an amount of the compound was scaled, and the target concentrate of the compound was prepared by addition of 5% DMSO, 10% Kolliphor HS15 and 85% saline (0.9%).
Administration and samples collection: the animals were fasted 12 hours before administration and provided again 3 hours post-administration, SD rats were administrated by intravenous injection from hindlimb peduncular veins (1 mg/kg) and by gavage (PO, 5 mg/kg). 200-400 μL of blood was collected at different time points 0, 0.083, 0.25, 0.5, 1, 2, 4, 6, 8, 24 h from rats tail vein. Blood collection was 200-400 μL per time point. The blood collected at each time point was placed in K2EDTA anticoagulant tube, and stored at a couveuse with ice bags. All the samples in 15 min were centrifuged at 4600 r/min at 4° C. for 5 min, plasma samples were obtained, the concentrates of compound in the plasma samples were determined by LC/MS/MS, the pharmacokinetic parameters were calculated based on the drug concentration-time curve.

farnesoid X receptor protein, sequence (Q96RI1 262-486, other chains not shown): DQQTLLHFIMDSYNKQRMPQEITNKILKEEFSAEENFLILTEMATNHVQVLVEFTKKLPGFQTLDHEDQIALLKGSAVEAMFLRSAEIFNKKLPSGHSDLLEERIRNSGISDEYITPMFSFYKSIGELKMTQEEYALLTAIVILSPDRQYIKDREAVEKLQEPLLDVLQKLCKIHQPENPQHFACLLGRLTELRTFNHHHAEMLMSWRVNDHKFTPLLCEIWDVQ

SMILES	half-life at 1 μM [1] [min]	ClHep [1] [mL/min/kg]	EC50 [2] [nM]	AUC(0-inf) ([3]; iv, 1 mg/kg) [ng·h/mL]	AUC(0-t) ([3]; iv, 1 mg/kg) [ng·h/mL]	Cmax ([3]; iv, 1 mg/kg) [ng/mL]	MRT inf ([3]; iv, 1 mg/kg) [min]	Tmax ([3]; iv, 1 mg/kg) [min]	clearance ([3]; iv, 1 mg/kg) [mL/min/kg]	half-life ([3]; iv, 1 mg/kg) [min]	Vd ([3]; iv, 1 mg/kg, read-out: Vss) [L/kg]	bioavailability ([3]; po 5 mg/kg versus iv 1 mg/kg) [%]	AUC(0-inf) ([3]; po, 5 mg/kg) [ng·h/mL]	AUC(0-t) ([3]; po, 5 mg/kg) [ng·h/mL]	Cmax ([3]; po, 5 mg/kg) [ng/mL]	MRT inf ([3]; po, 5 mg/kg) [min]	Tmax ([3]; po, 5 mg/kg) [min]	half-life ([3]; po, 5 mg/kg) [min]
O=C(O)c1ccc2c(c1)Oc1ccc(OCc3c(-c4ccc(Cl)cc4Cl)noc3C3CC3)nc1C1(CC1)C2 [Example 5, 2-((5-cyclopropyl-3-(2,4-dichlorophenyl)isoxazol-4-yl)methoxy)-10H-spiro[benzo[6,7]oxepino[3,2-b]pyridine-11,1′-cyclopropane]-7-carboxylic acid]	25	99.23	–	–	–	–	–	–	–	–	–	–	–	–	–	–	–	–
O=C(O)c1ccc2c(c1)Oc1ccc(OCc3c(-c4ccccc4OC(F)(F)F)noc3C3CC3)nc1CC2 [Example 2, 2-((5-cyclopropyl-3-(2-(trifluoromethoxy)phenyl)isoxazol-4-yl)methoxy)-10,11-dihydrobenzo[6,7]oxepino[3,2-b]pyridine-7-carboxylic acid]	28.8	86.33	–	–	–	–	–	–	–	–	–	–	–	–	–	–	–	–
O=C(O)c1ccc2c(c1)Oc1ccc(OCc3c(-c4ccccc4OC(F)(F)F)noc3C3CC3)nc1C1(CC1)C2 [Example 3, 2-((5-cyclopropyl-3-(2-(trifluoromethoxy)phenyl)isoxazol-4-yl)methoxy)-10H-Spiro[benzo[6,7]oxepino[3,2-b]pyridine-11,1′-cyclopropane]-7-carboxylic acid]	26.8	92.61	8.6	1740	1730	1660	60.6	4.98	9.62	46.4	0.584	71.3	6210	6170	2320	103	60	53.5
